Columns and labels:
[1] = biological target: T1, Aldehyde dehydrogenase 1A1 (Homo sapiens) (UniProt P00352); test: Inhibition of full length recombinant human ALDH1A1 expressed in Escherichia coli BL21(DE3) assessed as remaining dehydrogenase activity by measuring NAD(P)H level at 10 uM preincubated for 2 mins followed by addition of propionaldehyde as substrate in presence of NAD+ by spectrophotometric method
T1 sequence (whole entry): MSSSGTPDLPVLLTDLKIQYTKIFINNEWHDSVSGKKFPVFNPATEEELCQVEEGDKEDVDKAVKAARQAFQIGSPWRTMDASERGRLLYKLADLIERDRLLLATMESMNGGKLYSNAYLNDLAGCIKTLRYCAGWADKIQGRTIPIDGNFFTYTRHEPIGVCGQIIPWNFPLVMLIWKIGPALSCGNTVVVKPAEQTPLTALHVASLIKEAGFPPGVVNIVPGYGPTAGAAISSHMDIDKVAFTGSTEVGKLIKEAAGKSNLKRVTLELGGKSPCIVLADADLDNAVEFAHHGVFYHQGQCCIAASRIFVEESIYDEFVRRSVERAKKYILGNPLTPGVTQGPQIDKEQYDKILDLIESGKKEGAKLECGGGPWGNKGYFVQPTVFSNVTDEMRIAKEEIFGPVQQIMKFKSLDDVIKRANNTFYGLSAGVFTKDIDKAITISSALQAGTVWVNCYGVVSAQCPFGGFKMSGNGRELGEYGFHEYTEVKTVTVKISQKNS

[2] = biological target: T2, Aldehyde dehydrogenase, mitochondrial (Homo sapiens) (UniProt P05091); test: Inhibition of full length recombinant human ALDH2 expressed in Escherichia coli assessed as remaining dehydrogenase activity by measuring NAD(P)H level at 10 uM preincubated for 2 mins followed by addition of propionaldehyde as substrate in presence of NAD+ by spectrophotometric method
T2 sequence (whole entry): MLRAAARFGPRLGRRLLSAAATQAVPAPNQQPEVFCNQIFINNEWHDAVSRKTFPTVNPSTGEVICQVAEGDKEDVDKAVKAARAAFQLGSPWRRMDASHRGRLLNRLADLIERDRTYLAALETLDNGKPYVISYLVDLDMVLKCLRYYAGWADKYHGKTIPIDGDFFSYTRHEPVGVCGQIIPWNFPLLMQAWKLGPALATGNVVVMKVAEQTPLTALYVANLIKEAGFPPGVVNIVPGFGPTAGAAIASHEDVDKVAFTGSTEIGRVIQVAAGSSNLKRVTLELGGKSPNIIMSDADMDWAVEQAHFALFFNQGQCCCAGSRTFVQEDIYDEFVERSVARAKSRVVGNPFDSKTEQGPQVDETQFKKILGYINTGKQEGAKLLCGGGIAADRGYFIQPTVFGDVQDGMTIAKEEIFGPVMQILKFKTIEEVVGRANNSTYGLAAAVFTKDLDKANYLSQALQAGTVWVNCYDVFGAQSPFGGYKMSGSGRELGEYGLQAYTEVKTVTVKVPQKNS

[3] = Lipophilicity, log P of the compound; format: physicochemical; settings: octanol/water
[4] = biological target: T3, Aldehyde dehydrogenase, dimeric NADP-preferring (Homo sapiens) (UniProt P30838); test: Inhibition of full length recombinant human ALDH3A1 expressed in Escherichia coli BL21(DE3) assessed as remaining dehydrogenase activity by measuring NAD(P)H level at 10 uM preincubated for 2 mins followed by addition of propionaldehyde as substrate in presence of NAD+ by spectrophotometric method
T3 sequence (whole entry): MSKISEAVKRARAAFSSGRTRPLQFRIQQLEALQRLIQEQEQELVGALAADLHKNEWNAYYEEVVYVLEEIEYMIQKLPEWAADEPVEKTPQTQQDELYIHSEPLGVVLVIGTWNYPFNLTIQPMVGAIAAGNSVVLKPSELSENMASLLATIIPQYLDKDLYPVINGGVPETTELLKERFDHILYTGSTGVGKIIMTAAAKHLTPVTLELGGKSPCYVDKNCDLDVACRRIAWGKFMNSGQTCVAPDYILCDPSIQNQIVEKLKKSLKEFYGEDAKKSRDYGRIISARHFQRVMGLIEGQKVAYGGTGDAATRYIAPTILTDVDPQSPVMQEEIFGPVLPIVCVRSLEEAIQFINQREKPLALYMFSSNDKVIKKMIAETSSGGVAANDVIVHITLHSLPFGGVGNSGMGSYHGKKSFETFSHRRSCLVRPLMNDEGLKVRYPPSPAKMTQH

[5] = biological target: T4, Aldehyde dehydrogenase, mitochondrial (Homo sapiens, UniProt P05091)
T4 sequence (P05091 whole entry): T2 sequence (whole entry)
Description: Inhibition of full length recombinant human ALDH2 expressed in Escherichia coli assessed as reduction in dehydrogenase activity by measuring NAD(P)H level preincubated for 2 mins followed by addition of propionaldehyde as substrate in presence of NAD+ by spectrophotometric method

[6] = biological target: T5, Aldehyde dehydrogenase, dimeric NADP-preferring (Homo sapiens, UniProt P30838); test: Inhibition of full length recombinant human ALDH3A1 expressed in Escherichia coli BL21(DE3) assessed as reduction in dehydrogenase activity by measuring NAD(P)H level preincubated for 2 mins followed by addition of benzaldehyde as substrate in presence of NADP+ by spectrophotometric method
T5 sequence (P30838 whole entry): T3 sequence (whole entry)

[7] = biological target: T6, Aldehyde dehydrogenase 1A1 (Homo sapiens, UniProt P00352)
T6 sequence (P00352 whole entry): T1 sequence (whole entry)
Description: Inhibition of full length recombinant human ALDH1A1 expressed in Escherichia coli BL21(DE3) assessed as reduction in dehydrogenase activity by measuring NAD(P)H level preincubated for 2 mins followed by addition of propionaldehyde as substrate in presence of NAD+ by spectrophotometric method

Structure (SMILES)	Activity [1] [%]	Activity [2] [%]	logP [3]	Activity [4] [%]	IC50 [5] [µM]	IC50 [6]	IC50 [7]
CC(=O)C(C)Oc1ccc2ccc(=O)oc2c1 (stereo not drawn)	91.4	93.3	1.4	106			
Cc1coc2cc3oc(=O)c(Cc4ccccc4)c(C)c3cc12	58.5	83.6	4.98	90.3			
CC(C)=CCOc1ccc2c(C)cc(=O)oc2c1	37.3	93.3	3.94	23.7			
Cc1cc(=O)oc2cc(OCC(=O)Nc3ccccc3)ccc12	49.6	95	2.85	95.5			
Cc1c(C)c2cc3c(-c4ccccc4)coc3cc2oc1=O	87.4	92.8	4.8	88.9			
C=CCOc1ccc2c(C)cc(=O)oc2c1	35.5	94.6	3.01	9.46			
Cc1cc(=O)oc2cc(OCC(N)=O)ccc12	28.5	89.5	1.71	67.1			
Cc1cc2oc(=O)cc(C)c2cc1NC(=O)C(C)C	59.8	96.3	2.05	105			
Cc1oc2cc3oc(=O)cc(Cc4ccccc4)c3cc2c1C	57	73.7	4.8	81.6			
Cc1c(C)c2c(cc(C)c3c(C)coc32)oc1=O	71.5	46.4	3.92	98.1	0.15	Not Active	Not Active
Cc1oc2cc3oc(=O)c4ccccc4c3cc2c1C	82.4	42.2	3.89	93.4	0.15	Not Active	Not Active
Cc1cc(=O)oc2cc(OC(C)C(=O)O)ccc12 (stereo not drawn)	97.5	99.3	1.63	93.9			
Cc1c(C)c2cc3c4c(oc3cc2oc1=O)CCCC4	64.3	61.3	4.48	96.1			
Cc1oc2cc3oc(=O)c(CCC(=O)NCc4ccccc4)c(C)c3cc2c1C	93.6	69.8	4.52	68.3			
CC(=O)C(C)Oc1ccc2c(c1)oc(=O)c1ccccc12 (stereo not drawn)	58.7	64.4	2.64	103			
Cc1oc2c(C)c3oc(=O)c(C)c(C)c3cc2c1C	78.4	87.2	4.36	102			
CC(=O)COc1ccc2c(C)cc(=O)oc2c1	52.2	99.1	1.37	64.1			
Cc1c(C)c2cc3c(=O)ccoc3c(C)c2oc1=O	67.4	80.2	2.1	79.2			
CC(=O)C(C)Oc1ccc2c(C)cc(=O)oc2c1 (stereo not drawn)	68.7	94.4	1.72	101			
Cc1cc(=O)oc2cc(OCC(=O)c3ccccc3)ccc12	29	97.8	3.19	67.1			
Cc1c(C)c2cc3c(C(C)(C)C)coc3cc2oc1=O	94.5	69.7	3.94	87			
Cc1c(CCC(=O)O)c(=O)oc2cc(O)ccc12	96.6	101	1.82	105			
COc1ccc2c(C)cc(=O)oc2c1 [HYMECROMONE METHYL ETHER]	80.2	94.8	2.46	36.4			

From ChEMBL document CHEMBL4007427, “Inhibition of the Aldehyde Dehydrogenase 1/2 Family by Psoralen and Coumarin Derivatives” (J Med Chem, 2017)
